From PubChem BioAssay AID206 (DTP/NCI, 2004) come the findings set out here.

In this test the test system is nude mice, HT29 intrarenal xenograft, tumor weight T/C. The test is described as follows: NCI In Vivo Anticancer Drug Screen. Data for tumor model HT29;CX-1 Human Adenocarcinoma (MER+) (intrarenal inoculation) in NU/NU Swiss (nude) mice. Particulars: endpoint: mean tumor weight change, higher = larger tumour. The essentials: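 T/C = treated-group value ÷ vehicle-group value, using tumor size or survival.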

The mark [1] stands for this setting: dose: 150.0 mg/kg/injection, schedule: Q04DX004 (sc), vehicle: Klucel (hydroxypropylcellulose) (HPC).
The mark [2] stands for this setting: dose: 300.0 mg/kg/injection, schedule: Q04DX004 (sc), vehicle: Klucel (hydroxypropylcellulose) (HPC).
Setting [3] is: dose: 600.0 mg/kg/injection, schedule: Q04DX004 (sc), vehicle: Klucel (hydroxypropylcellulose) (HPC).
[4] abbreviates: dose: 1200.0 mg/kg/injection, schedule: Q04DX004 (sc), vehicle: Klucel (hydroxypropylcellulose) (HPC).
[5] abbreviates: dose: 200.0 mg/kg/injection, schedule: Q04DX004 (sc), vehicle: suspension in saline.
The mark [6] stands for this setting: dose: 18.75 mg/kg/injection, schedule: Q04DX004 (sc), vehicle: Klucel (hydroxypropylcellulose) (HPC).
The mark [7] stands for this setting: dose: 37.5 mg/kg/injection, schedule: Q04DX004 (sc), vehicle: Klucel (hydroxypropylcellulose) (HPC).
[8] abbreviates: dose: 75.0 mg/kg/injection, schedule: Q04DX004 (sc), vehicle: Klucel (hydroxypropylcellulose) (HPC).

“And” between values parts separate entries of the source, which are not always exact repeats. Equal values may be shown once. Results filed as inconclusive are left out.

`COc1cccc2c1C(=O)c1c(O)c3c(c(O)c1C2=O)C[C@@](O)(/C(C)=N/NC(=O)c1cccc([N+](=O)[O-])c1)C[C@@H]3OC1CC(N)C(O)C(C)O1` (some centres undefined): the T/C reads like this: (dose: 8.0 mg/kg/injection, schedule: Q01DX010 (sc), vehicle: water) 16 % of control; (dose: 10.0 mg/kg/injection, schedule: Q04DX004 (sc), vehicle: water) 48 % of control; (dose: 16.0 mg/kg/injection, schedule: Q01DX010 (sc), vehicle: water) 61 % of control; (dose: 20.0 mg/kg/injection, schedule: Q04DX004 (sc), vehicle: water) 70 % of control; (dose: 40.0 mg/kg/injection, schedule: Q04DX004 (sc), vehicle: water) 47 % of control; (dose: 80.0 mg/kg/injection, schedule: Q04DX004 (sc), vehicle: water) 106 % of control.

Regarding `C=Cc1cnc([N+](=O)[O-])n1C`, the T/C is 110 % of control under setting [1] and 108 % of control under setting [2].

For `[I][Hg][CH2]C1OCCOC1[CH2][Hg][I]` (centres undefined), the T/C under setting [2] was 81 % of control; the T/C under setting [3] is 104 % of control; the T/C under setting [4] was 80 % of control; the T/C (dose: 2400.0 mg/kg/injection, schedule: Q04DX004 (sc), vehicle: Klucel (hydroxypropylcellulose) (HPC)) is 73 % of control.

With `O=C(O)C(CSC(c1ccccc1)(c1ccccc1)c1ccccc1)N=Cc1cccs1` (centres undefined), the T/C under setting [5] was 12 % of control.

Regarding `COc1ccc(C(N)=O)cc1N=NN(C)C`, the T/C runs as follows: under setting [6], 100 % of control; under setting [7], 31 % of control and 55 % of control; under setting [8], 45 % of control and 52 % of control and 70 % of control.

Turning to `CCSC(=O)N1c2ccc(OC)cc2C=CC1C#N` (centres undefined), the T/C was 93 % of control (dose: 600.0 mg/kg/injection, schedule: Q04DX004 (sc), vehicle: saline with Tween-80); 84 % of control (dose: 1200.0 mg/kg/injection, schedule: Q04DX004 (sc), vehicle: saline with Tween-80); 53 % of control (dose: 2400.0 mg/kg/injection, schedule: Q04DX004 (sc), vehicle: saline with Tween-80).

For `COC1C(O)CC(OC2CC(OC3CC(O[C@@H]4C(=O)c5c(cc6cc(OC7CC(OC8CC(O)C(O)C(C)O8)C(O)C(C)O7)c(C)c(O)c6c5O)C[C@H]4[C@H](OC)C(=O)[C@@H](O)[C@@H](C)O)OC(C)C3O)OC(C)C2O)OC1C` (some centres undefined), the T/C was 27 % of control and 50 % of control (dose: 0.75 mg/kg/injection, schedule: Q01DX010 (sc), vehicle: saline); 29 % of control and 41 % of control (dose: 1.5 mg/kg/injection, schedule: Q01DX010 (sc), vehicle: saline).

In the case of `C=C(C)[C@H]1Cc2c(ccc3c2O[C@@H]2COc4cc(OC)c(OC)cc4[C@@H]2C3=O)O1`, the T/C was 161 % of control (dose: 2.0 mg/kg/injection, schedule: Q01DX010 (sc), vehicle: saline with Tween-80); 29 % of control (dose: 4.0 mg/kg/injection, schedule: Q01DX010 (sc), vehicle: saline with Tween-80); 57 % of control (dose: 8.0 mg/kg/injection, schedule: Q01DX010 (sc), vehicle: saline with Tween-80).

Take `C[CH2][Sn]([CH2]C)([CH2]C(=O)OC)[CH2]C(=O)OC`: the T/C by setting is: (dose: 12.5 mg/kg/injection, schedule: Q04DX004 (sc), vehicle: saline with Tween-80) 79 % of control; (dose: 25.0 mg/kg/injection, schedule: Q04DX004 (sc), vehicle: saline with Tween-80) 83 % of control; (dose: 50.0 mg/kg/injection, schedule: Q04DX004 (sc), vehicle: saline with Tween-80) 79 % of control.

With `CNC(=O)ON(C(C)=O)C(=O)NC`, the T/C is, setting by setting: (dose: 25.0 mg/kg/injection, schedule: Q01DX010 (sc), vehicle: saline) 75 % of control; (dose: 50.0 mg/kg/injection, schedule: Q01DX010 (sc), vehicle: saline) 109 % of control; (dose: 50.0 mg/kg/injection, schedule: Q04DX004 (sc), vehicle: saline) 34 % of control; (dose: 100.0 mg/kg/injection, schedule: Q01DX010 (sc), vehicle: saline) 13 % of control; (dose: 100.0 mg/kg/injection, schedule: Q04DX004 (sc), vehicle: suspension in saline) 116 % of control; (dose: 150.0 mg/kg/injection, schedule: Q04DX004 (sc), vehicle: suspension in saline) 114 % of control. The T/C reads like this: under setting [5], 57 % of control; (dose: 250.0 mg/kg/injection, schedule: Q04DX004 (sc), vehicle: suspension in saline) 18 % of control.

With `COc1cc2cc[n+](C)c(Cc3ccccc3)c2cc1OC`, the T/C was 73 % of control under setting [6], 108 % of control under setting [7] and 54 % of control under setting [8].

Consider `C[Si](C)(C)n1nnn(-c2ccccc2)c1=O`, for which the T/C (dose: 37.5 mg/kg/injection, schedule: Q04DX004 (sc), vehicle: saline with Tween-80) is 116 % of control; the T/C (dose: 75.0 mg/kg/injection, schedule: Q04DX004 (sc), vehicle: saline with Tween-80) is 120 % of control; the T/C (dose: 300.0 mg/kg/injection, schedule: Q04DX004 (sc), vehicle: saline with Tween-80) is 116 % of control.

In the case of `O=c1ncccn1[C@@H]1O[C@H](CO)[C@H](O)C1O` (some centres undefined), the T/C (dose: 300.0 mg/kg/injection, schedule: Q04DX004 (sc), vehicle: saline) is 110 % of control; the T/C (dose: 600.0 mg/kg/injection, schedule: Q04DX004 (sc), vehicle: saline) is 87 % of control; the T/C (dose: 1200.0 mg/kg/injection, schedule: Q04DX004 (sc), vehicle: saline) is 51 % of control; the T/C (dose: 2400.0 mg/kg/injection, schedule: Q04DX004 (sc), vehicle: saline) was 55 % of control.

Consider `Nc1ncnc2c(C3OC(CO)C(O)C3O)[nH]nc12` (centres undefined), for which the T/C (dose: 75.0 mg/kg/injection, schedule: Q04DX004 (sc), vehicle: suspension in saline) was 39 % of control.

Consider `Cc1nn(CCO)c(C)c1N=[N+]([O-])c1c(C)nn(CCO)c1C`, for which the T/C under setting [8] is 68 % of control; the T/C under setting [1] was 70 % of control; the T/C under setting [2] is 44 % of control; the T/C under setting [3] is 53 % of control; the T/C under setting [4] is 102 % of control.

`CCN1/C(=C/C=C/C=C/c2sc3ccccc3[n+]2CC)Sc2ccccc21`: the T/C was 77 % of control (dose: 0.38 mg/kg/injection, schedule: Q04DX004 (sc), vehicle: suspension in saline); 72 % of control (dose: 0.75 mg/kg/injection, schedule: Q04DX004 (sc), vehicle: suspension in saline); 104 % of control (dose: 1.5 mg/kg/injection, schedule: Q04DX004 (sc), vehicle: suspension in saline); 89 % of control (dose: 3.0 mg/kg/injection, schedule: Q04DX004 (sc), vehicle: suspension in saline).

In the case of `CN(C)c1ccc(C(=C2C=CC(=[N+](C)C)C=C2)c2ccc(N(C)C)cc2)cc1` (tested in a mixture with another compound), the T/C is, setting by setting: (dose: 1.25 mg/kg/injection, schedule: Q01DX010 (sc), vehicle: saline with Tween-80) 86 % of control; (dose: 2.5 mg/kg/injection, schedule: Q01DX010 (sc), vehicle: saline with Tween-80) 111 % of control; (dose: 5.0 mg/kg/injection, schedule: Q01DX010 (sc), vehicle: saline with Tween-80) 100 % of control; (dose: 10.0 mg/kg/injection, schedule: Q01DX010 (sc), vehicle: saline with Tween-80) 60 % of control.

As for `COc1cc(OC)c(OC)cc1/C=C\c1ccnc2ccccc12`, the T/C is, setting by setting: (dose: 225.0 mg/kg/injection, schedule: Q04DX004 (sc), vehicle: Klucel (hydroxypropylcellulose) (HPC)) 79 % of control; (dose: 450.0 mg/kg/injection, schedule: Q04DX004 (sc), vehicle: Klucel (hydroxypropylcellulose) (HPC)) 110 % of control; (dose: 900.0 mg/kg/injection, schedule: Q04DX004 (sc), vehicle: Klucel (hydroxypropylcellulose) (HPC)) 83 % of control; (dose: 1800.0 mg/kg/injection, schedule: Q04DX004 (sc), vehicle: Klucel (hydroxypropylcellulose) (HPC)) 67 % of control.

As to `Nc1nc(=S)c2ncn(C3CC(O)C(CO)O3)c2[nH]1` (centres undefined), the T/C runs as follows: (dose: 1.8 mg/kg/injection, schedule: Q04DX004 (sc), vehicle: saline with Tween-80) 119 % of control; (dose: 3.75 mg/kg/injection, schedule: Q04DX004 (sc), vehicle: saline with Tween-80) 105 % of control; (dose: 7.5 mg/kg/injection, schedule: Q04DX004 (sc), vehicle: saline with Tween-80) 107 % of control; (dose: 100.0 mg/kg/injection, schedule: Q01DX010 (sc), vehicle: Klucel (hydroxypropylcellulose) (HPC)) 114 % of control.

For `OCC1OC(n2cnc3c2NC=NC[C@H]3O)CC1O` (some centres undefined), the T/C is 168 % of control (dose: 1.0 mg/kg/injection, schedule: Q01DX010 (sc), vehicle: water) and 176 % of control (dose: 2.0 mg/kg/injection, schedule: Q01DX010 (sc), vehicle: water).
